Source: ChEMBL document CHEMBL5241054, “Effective anti-aromatase therapy to battle against estrogen-mediated breast cancer: Comparative SAR/QSAR assessment on steroidal aromatase inhibitors” (Eur J Med Chem, 2020)

biological target: T1, Aromatase (Homo sapiens, UniProt P11511)
T1 sequence (P11511 whole entry): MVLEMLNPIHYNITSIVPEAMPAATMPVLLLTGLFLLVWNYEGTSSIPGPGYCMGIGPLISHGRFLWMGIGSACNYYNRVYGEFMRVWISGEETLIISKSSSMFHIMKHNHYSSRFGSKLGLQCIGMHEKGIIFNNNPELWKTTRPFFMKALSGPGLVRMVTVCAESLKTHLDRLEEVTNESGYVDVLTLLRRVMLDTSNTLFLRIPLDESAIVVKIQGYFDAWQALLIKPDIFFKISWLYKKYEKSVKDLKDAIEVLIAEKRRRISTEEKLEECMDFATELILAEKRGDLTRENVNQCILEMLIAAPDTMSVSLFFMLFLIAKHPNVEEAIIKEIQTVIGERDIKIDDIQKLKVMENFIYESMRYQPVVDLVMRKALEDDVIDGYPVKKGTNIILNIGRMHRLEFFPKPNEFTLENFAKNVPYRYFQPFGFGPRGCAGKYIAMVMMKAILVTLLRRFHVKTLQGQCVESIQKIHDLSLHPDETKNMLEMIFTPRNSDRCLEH

Which IC50 does the source give for `C[C@]12CC[C@@H]3C4CCCCC4=CC(=O)[C@H]3[C@@H]1CCC2=O` (some centres undefined) here?
The IC50 was 28000 nM.

`C[C@H]1C[C@@H]2[C@H](CC[C@]3(C)[C@@H](O)CC[C@@H]23)c2ccc(O)cc21` was tested. Which IC50 did it give?
Its IC50 is 19000 nM.

How did the IC50 turn out when `C[C@]12CC[C@@H]3c4cc(N)c(O)cc4CC[C@H]3[C@@H]1CCC2=O` was run?
Its IC50 is 31000 nM.

`CCCCCCCC1=C[C@@]2(C)C(=CC1=O)CC[C@@H]1[C@@H]2CC[C@]2(C)C(=O)CC[C@@H]12` was tested. Which IC50 did it give?
Its IC50 is 605 nM.

With `C[C@]12CC[C@H]3[C@@H](CCC4=CC(=O)CC[C@@]43CCCl)[C@@H]1CCC2=O` as the molecule, how does the IC50 read?
The IC50 was 8000 nM.

`C[C@]12CC[C@H]3[C@@H]([C@H](CCc4ccccc4)CC4=CC(=O)CC[C@@]43C)[C@@H]1CC[C@@H]2O` was tested. Which IC50 did it give?
Its IC50 is 36 nM.

How did the IC50 turn out when `C[C@]12C[C@@H](CCc3ccccc3)C(=O)C=C1CC[C@@H]1[C@@H]2CC[C@]2(C)C(=O)CC[C@@H]12` was run?
Its IC50 is 126000 nM.

`C=C[C@]12CCC(=O)C=C1CC[C@@H]1[C@@H]2CC[C@]2(C)C(=O)CC[C@@H]12` was tested. Which IC50 did it give?
The IC50 was 100 nM.

`CCCCC1C[C@H]2[C@@H]3CC[C@H](O)[C@@]3(C)CC[C@@H]2[C@@]2(C)CCC(=O)C=C12` (some centres undefined) was tested. Which IC50 did it give?
Its IC50 is 48 nM.

Which IC50 does the source give for `C[C@]12C=CC(=O)C=C1[C@H](Cc1ccccc1)C[C@@H]1[C@@H]2CC[C@]2(C)C(=O)CC[C@@H]12` here?
Its IC50 is 590 nM.

How did the IC50 turn out when `CCCCCCC1=C[C@@]2(C)C(=CC1=O)CC[C@@H]1[C@@H]2CC[C@]2(C)C(=O)CC[C@@H]12` was run?
The IC50 was 298 nM.

Which IC50 does the source give for `CCC[C@@H]1C[C@@]2(C)C(=CC1=O)CC[C@@H]1[C@@H]2CC[C@]2(C)C(=O)CC[C@@H]12` here?
Its IC50 is 1460 nM.

`C[C@]12CCC(=O)c3[nH]nc(c31)C[C@@H]1[C@@H]2CC[C@]2(C)C(=O)CC[C@@H]12` was tested. Which IC50 did it give?
The IC50 was 236 nM.

Which IC50 does the source give for `C[C@]12CC[C@@H]3c4cc(C=O)c(O)cc4CC[C@H]3[C@@H]1CC[C@@H]2O` here?
Its IC50 is 101000 nM.

Which IC50 does the source give for `C[C@]12CC[C@@H]3c4ccc(O)cc4[C@H](c4ccccc4)C[C@H]3[C@@H]1CC[C@@H]2O` here?
The IC50 was 129000 nM.

For `C[C@]12CC[C@H]3[C@@H](C(=O)C=C4CCCC[C@@]43CO)[C@@H]1CCC2O` (some centres undefined), which IC50 is on record?
Its IC50 is 43000 nM.

`C[C@]12CCC(=O)C=C1[C@@H]1N[C@@H]1[C@@H]1[C@@H]2CC[C@]2(C)C(=O)CC[C@@H]12` was tested. Which IC50 did it give?
The IC50 was 49200 nM.

Which IC50 does the source give for `C[C@]12CC[C@H]3[C@@H](C(=O)C=C4C(=O)CCC[C@@]43C=O)[C@@H]1CCC2=O` here?
Its IC50 is 51100 nM.

How did the IC50 turn out when `CC[C@@H]1C[C@@H]2[C@H](CC[C@]3(C)C(=O)CC[C@@H]23)[C@@]2(C)CCC(=O)C=C12` was run?
Its IC50 is 140 nM.

`CC(=O)OC[C@]12CCCC=C1CC[C@@H]1[C@@H]2CC[C@]2(C)C(O)CC[C@@H]12` (some centres undefined) was tested. Which IC50 did it give?
The IC50 was 44000 nM.

Which IC50 does the source give for `C[C@]12CCC(=O)C=C1[C@H](CCCCCc1ccccc1)C[C@@H]1[C@@H]2CC[C@]2(C)C(=O)CC[C@@H]12` here?
The IC50 was 450000 nM.

Which IC50 does the source give for `CO[C@@H]1C[C@@H]2[C@H](CC[C@]3(C)C(=O)CC[C@@H]23)[C@@]2(C)CCCC=C12` here?
Its IC50 is 50 nM.

`C[C@]12CCC(=O)C(Sc3ccccc3)=C1C=C[C@@H]1[C@@H]2CC[C@]2(C)C(=O)CC[C@@H]12` was tested. Which IC50 did it give?
The IC50 was 25 nM.

How did the IC50 turn out when `C[C@]12CC[C@@H]3c4ccc(O)c(C=O)c4CC[C@H]3[C@@H]1CC[C@@H]2O` was run?
The IC50 was 28300 nM.

`CCC1C[C@H]2[C@@H]3CC[C@H](O)[C@@]3(C)CC[C@@H]2[C@@]2(C)C=CC(=O)C=C12` (some centres undefined) was tested. Which IC50 did it give?
The IC50 was 61.9 nM.

`C[C@]12CCC(=O)C=C1C=C(c1ccccc1)[C@@H]1[C@@H]2CC[C@]2(C)C(=O)CC[C@@H]12` was tested. Which IC50 did it give?
Its IC50 is 1430 nM.

`C[C@@H]1C[C@@H]2[C@H](CC[C@]3(C)C(=O)CC[C@@H]23)[C@@]2(C)CCCC=C12` was tested. Which IC50 did it give?
Its IC50 is 49 nM.

Which IC50 does the source give for `C[C@]12CC[C@H]3[C@@H](C=CC4=CC(=O)C=C[C@@]43CBr)[C@@H]1CCC2=O` here?
The IC50 was 2100 nM.

How did the IC50 turn out when `C[C@]12CCC(=O)C=C1[C@H](CCCCc1ccccc1)C[C@@H]1[C@@H]2CC[C@]2(C)C(=O)CC[C@@H]12` was run?
Its IC50 is 135000 nM.
